# Where two headings read alike, the source gives them in different places.
# Tested on: patients undergoing percutaneous coronary intervention (PCI)
# Conditions: for Mortality/Q-wave MI/IDR / Mortality/Q-wave MI/Stent thrombosis: exploratory; for Angiographic complications (site reported): Abrupt vessel closure / Angiographic complications (site reported): Acute stent thrombosis / Angiographic complications (site reported): Need for urgent CABG / Angiographic complications (site reported): New thrombus or suspected thrombus / Angiographic complications (site reported): Threatened abrupt closure / Angiographic complications (site reported): Unsuccessful procedure: index PCI
# Experimental: The diagnosis of non-ST-segment elevation myocardial infarction required troponin I or T greater than the upper limit of normal within 24 hours of randomization (or if troponin results were unavailable at that time, creatine kinase-myocardial band isoenzyme [CK-MB] greater than the upper limit of normal). The diagnosis of unstable angina required ischemic chest discomfort occurring at rest and lasting ≧10 minutes within the 24 hours prior to randomization and dynamic electrocardiographic changes; age ≧65 years and/or diabetes mellitus were also required.
# The primary efficacy endpoint was the composite of mortality, myocardial infarction, or ischemia-driven revascularization at 48 hours. The primary analysis was performed on a modified intent-to-treat population. Confirmatory analyses were performed on an intent-to-treat population. Secondary endpoints included the individual rates of mortality, myocardial infarction, new Q-wave myocardial infarction, ischemia-driven revascularization, abrupt vessel closure, or stroke at 48 hours. Mortality at 30 days and 1 year was also recorded. The clinical events committee adjudicated myocardial infarction, Q-wave myocardial infarction, ischemia-driven revascularization, stent thromboses, and stroke (ischemic or hemorrhagic). The definition of stent thrombosis was similar to the Academic Research Consortium definition of definite stent thrombosis. After review of the prespecified analyses, two exploratory endpoints less reliant on periprocedural biomarker ascertainment were examined. The exploratory endpoints, which were composed of prespecified and adjudicated endpoints, were the composite of mortality, Q-wave myocardial infarction, or ischemia-driven revascularization and the composite of mortality, Q-wave myocardial infarction, or stent thrombosis. Bleeding and adverse events through 48 hours were compared.
# All efficacy analyses were performed on the modified intent-to-treat population, defined as all randomized patients who received at least one dose of study drug and underwent the index PCI. All safety-related analyses were performed on the safety population, which included all patients who received at least one dose of assigned study drug. Patients in the safety analyses were assigned to a treatment arm based on treatment actually received, not as randomized. Intent-to-treat analyses are also presented for full disclosure of results. All statistical tests were two-tailed using a level of significance of 0.05. […] Logistic regression was also used to analyze the majority of the remaining secondary endpoints.
compound,measurement,setting,value
"COC(=O)[C@H](c1ccccc1Cl)N1CCc2sccc2C1 [Clopidogrel, clopidogrel, reference compound]",All-cause mortality,"30-day, ITT",47 (1.8) no. (%)
same,IDR,"30-day, ITT",49 (1.8) no. (%)
same,MI,"30-day, ITT",202 (7.6) no. (%)
same,Mortality/MI/IDR,"30-day, ITT",254 (9.6) no. (%)
same,Q-wave MI,"30-day, ITT",15 (0.6) no. (%)
same,Stent thrombosis,"30-day, ITT",29 (1.1) no. (%)
same,Mortality/Q-wave MI/IDR,"30-day, ITT",94 (3.5) no. (%)
same,Mortality/Q-wave MI/Stent thrombosis,"30-day, ITT",77 (2.9) no. (%)
same,All-cause mortality,"30-day, MITT",45 (1.7) no. (%)
same,IDR,"30-day, MITT",46 (1.7) no. (%)
same,MI,"30-day, MITT",201 (7.6) no. (%)
same,Mortality/MI/IDR,"30-day, MITT",249 (9.5) no. (%)
same,Q-wave MI,"30-day, MITT",14 (0.5) no. (%)
same,Stent thrombosis,"30-day, MITT",28 (1.1) no. (%)
same,Mortality/Q-wave MI/IDR,"30-day, MITT",89 (3.4) no. (%)
same,Mortality/Q-wave MI/Stent thrombosis,"30-day, MITT",73 (2.8) no. (%)
same,All-cause mortality,"30-day, Safety population",45 (1.7) no. (%)
same,IDR,"30-day, Safety population",47 (1.8) no. (%)
same,MI,"30-day, Safety population",203 (7.7) no. (%)
same,Mortality/MI/IDR,"30-day, Safety population",251 (9.5) no. (%)
same,Q-wave MI,"30-day, Safety population",15 (0.6) no. (%)
same,Stent thrombosis,"30-day, Safety population",28 (1.1) no. (%)
same,Mortality/Q-wave MI/IDR,"30-day, Safety population",90 (3.4) no. (%)
same,Mortality/Q-wave MI/Stent thrombosis,"30-day, Safety population",74 (2.8) no. (%)
same,All-cause mortality,"48-hour, ITT",19 (0.7) no. (%)
same,IDR,"48-hour, ITT",26 (1.0) no. (%)
same,MI,"48-hour, ITT",192 (7.2) no. (%)
same,Mortality/MI/IDR,"48-hour, ITT",213 (8.0) no. (%)
same,Q-wave MI,"48-hour, ITT",9 (0.3) no. (%)
same,Stent thrombosis,"48-hour, ITT",16 (0.6) no. (%)
same,Stroke,"48-hour, ITT",6 (0.2) no. (%)
same,Mortality/Q-wave MI/IDR,"48-hour, ITT",44 (1.7) no. (%)
same,Mortality/Q-wave MI/Stent thrombosis,"48-hour, ITT",36 (1.4) no. (%)
same,All-cause mortality,"48-hour, MITT",18 (0.7) no. (%)
same,IDR,"48-hour, MITT",24 (0.9) no. (%)
same,MI,"48-hour, MITT",191 (7.2) no. (%)
same,Mortality/MI/IDR (primary endpoint),"48-hour, MITT",210 (8.0) no. (%)
same,Q-wave MI,"48-hour, MITT",8 (0.3) no. (%)
same,Stent thrombosis,"48-hour, MITT",16 (0.6) no. (%)
same,Stroke,"48-hour, MITT",5 (0.2) no. (%)
same,Mortality/Q-wave MI/IDR,"48-hour, MITT",41 (1.6) no. (%)
same,Mortality/Q-wave MI/Stent thrombosis,"48-hour, MITT",34 (1.3) no. (%)
same,Mortality/Q-wave MI/IDR,"48-hour, Safety population",42 (1.6) no. (%)
same,Mortality/Q-wave MI/Stent thrombosis,"48-hour, Safety population",35 (1.3) no. (%)
same,All-cause mortality,"48-hour, safety population",18 (0.7) no. (%)
same,IDR,"48-hour, safety population",25 (0.9) no. (%)
same,MI,"48-hour, safety population",193 (7.3) no. (%)
same,Mortality/MI/IDR,"48-hour, safety population",212 (8.0) no. (%)
same,Q-wave MI,"48-hour, safety population",9 (0.3) no. (%)
same,Stent thrombosis,"48-hour, safety population",16 (0.6) no. (%)
same,Stroke,"48-hour, safety population",5 (0.2) no. (%)
same,Angiographic complications (site reported): Abrupt vessel closure,ITT,16 (0.6)
same,Angiographic complications (site reported): Acute stent thrombosis,ITT,5 (0.2)
same,Angiographic complications (site reported): Need for urgent CABG,ITT,4 (0.2)
same,Angiographic complications (site reported): New thrombus or suspected thrombus,ITT,15 (0.6)
same,Angiographic complications (site reported): Threatened abrupt closure,ITT,9 (0.3)
same,Angiographic complications (site reported): Unsuccessful procedure,ITT,97 (3.7)
same,Angiographic complications (site reported): Abrupt vessel closure,MITT,16 (0.6)
same,Angiographic complications (site reported): Acute stent thrombosis,MITT,5 (0.2)
same,Angiographic complications (site reported): Need for urgent CABG,MITT,3 (0.1)
same,Angiographic complications (site reported): New thrombus or suspected thrombus,MITT,15 (0.6)
same,Angiographic complications (site reported): Threatened abrupt closure,MITT,9 (0.3)
same,Angiographic complications (site reported): Unsuccessful procedure,MITT,95 (3.6)
same,Angiographic complications (site reported): Abrupt vessel closure,Safety population,16 (0.6)
same,Angiographic complications (site reported): Acute stent thrombosis,Safety population,5 (0.2)
same,Angiographic complications (site reported): Need for urgent CABG,Safety population,3 (0.1)
same,Angiographic complications (site reported): New thrombus or suspected thrombus,Safety population,15 (0.6)
same,Angiographic complications (site reported): Threatened abrupt closure,Safety population,9 (0.3)
same,Angiographic complications (site reported): Unsuccessful procedure,Safety population,95 (3.6)

# From patent US8680052B1, “Methods of treating, reducing the incidence of, and/or preventing ischemic events” (The Medicines Company, priority 2013, dated 2014)
